# Laboratory results published in US12521350B2, “Liquid crystalline dosage form for administering a statin” (CUBOPHARM PTY LTD, priority 2017, dated 2026).
# How the values were obtained:
# human subjects = assay: Blood lipid changes after three single 5 mg rosuvastatin doses (Example 7); assay type: in vivo
# From the text: Each participant was given a single dose of medication on separate occasions after appropriate wash-out periods. […]
# [1] = In vitro release/permeation of rosuvastatin through porcine buccal mucosa in modified Ussing chambers; assay type: in vitro ADME, pigs
# Experimental: Porcine buccal mucosa was freshly isolated from pigs cheeks, mounted between modified Ussing chambers with a donor chamber, receptor chamber and the porcine buccal mucosa in between with a diffusional area of 0.64 cm^2, and incubated in Krebs bicarbonate Ringer buffer (KBR, pH 7.4) for 30 min. The mixture or tablet containing rosuvastatin (supplied by Aspen Pharmacare Australia) were applied to the porcine buccal mucosa (ie in the donor chamber) and, when necessary, Parafilm was applied to cover the formulation (ie for tablets and for mixtures containing glyceryl monooleate (GMO) and rosuvastatin). The Parafilm prevented the various formulations from detaching from the buccal mucosa. KBR buffer (1.5 mL) was then added to both the donor and receptor chambers, and receptor samples (200 μL) were collected from the receptor chamber at various time points up to 4-5 hours to determine the amount of rosuvastatin that passed through the porcine buccal mucosa to the receptor chamber. 200 μL of fresh KBR was dispensed into the receptor chamber after each collection (to ensure volume balance). Receptor chamber samples were provided to Aspen Pharmacare Australia for quantification of rosuvastatin by HPLC.
# Positive control was tested by making rosuvastatin solutions of 0.4 and 0.8 mg/1.5 ml KBR solution, equivalent to 1:[…] ODT's. […]
# [2] = 10 mg, after 6 weeks therapy; cited from earlier work
# [3] = Mean of 3 subjects, three single 5 mg doses
# [4] = Person (buccal dosing), three single 5 mg doses
# [5] = Person one (sublingual dosing), three single 5 mg doses
# [6] = Person two (sublingual dosing), three single 5 mg doses
# [7] = after three single 5 mg rosuvastatin doses
smiles,measurement,setting,value
CC(C)c1nc(N(C)S(C)(=O)=O)nc(-c2ccc(F)cc2)c1/C=C/[C@@H](O)C[C@@H](O)CC(=O)O [rosuvastatin],% change in HDL,human subjects; [3],4.8%
same,% change in LDL,human subjects; [3],−26.54%
same,% change in Triglycerides,human subjects; [3],−7.91%
same,% change in total cholesterol,human subjects; [3],−16.8%
same,% change in HDL,human subjects; [4],5.9%
same,% change in LDL,human subjects; [4],−35.7%
same,% change in Triglycerides,human subjects; [4],20.0%
same,% change in total cholesterol,human subjects; [4],−20.3%
same,% change in HDL,human subjects; [5],−5.9%
same,% change in LDL,human subjects; [5],−21.05%
same,% change in Triglycerides,human subjects; [5],−37.5%
same,% change in total cholesterol,human subjects; [5],−17.5%
same,% change in total cholesterol,"human subjects; Person two (sublingual dosing), after 5 mg Crestor, 5 mg 1:1 tablet and 5 mg 7:1 tablet on consecutive days",−12.7%
same,% change in HDL,human subjects; [6],14.3%
same,% change in LDL,human subjects; [6],−22.9%
same,% change in Triglycerides,human subjects; [6],−16.6%
same,increase of HDL,human subjects; [7],5%
same,reduction of low density lipoproteins (LDL-C),human subjects; [7],27%
same,reduction of total cholesterol (TC),human subjects; [7],17%
same,Total rosuvastatin absorbed per minute,"[1]; positive control solution 0.4 mg/1.5 ml KBR, equivalent to 1:1 ODT",0.6 ng/mL
same,Total rosuvastatin absorbed per minute,"[1]; positive control solution 0.8 mg/1.5 ml KBR, equivalent to 7:1 ODT",0.3 ng/mL
CC(C)c1c(C(=O)Nc2ccccc2)c(-c2ccccc2)c(-c2ccc(F)cc2)n1CC[C@@H](O)C[C@@H](O)CC(=O)O [atorvastatin],Reductions in LDL-C,[2],37%
